From US5601806A, “Methods for scavenging active oxygen compounds and preventing damage from ultra violet B rays using taurine analogues” (Sogo Pharmaceutical Company Limited, priority 1991, dated 1997) come the findings set out here.

Data set [1] in a line: Long-term administration to rats, 180 days. The data set is classed as in vivo. The settings on record: 200 mg/kg every day. From the text:
The active ingredient compound according to the present invention, an aminothiosulfonic acid, not only functions as a light shield and as a production inhibitor or scavenger of lipid peroxides and active oxygen, but since it and its decomposition products are structurally similar to compounds which are naturally present in the body including taurine, etc. (C.R. Acad. Sci., Ser. 3, 302 (13) 503-8: Presence of Large Quantities of Thiotaurine and Hypotaurine in the Tissues of Riftia pachyptila), its toxicity is extremely low making it a safe substance.

A short description of data set [2]: Lipid peroxide production inhibitory effect. The data set is classed as biochemical. On the procedure:
Fifty ml of a solution prepared by combining a solution of 12.5 mg of methyl linoleate, 2.5 mg of Rf and 2-70 mg of thiotaurine in ethanol with a wing buffer solution, and the resulting solution was subjected to light irradiation as in Experiment 2. After a determined period of time a sample was recovered, and the lipid peroxides were measured using the Yagi method.

Data set [3] is described as follows: SOD-mimic functions of thiotaurine (xanthine-xanthine oxidase-NBT method). The data set is classed as biochemical. From the text: Experimental method: Measurement of the SOD-mimic functions was done, with slight modifications, according to the Xanthine-xanthine oxidase-nitrobluetetrazolium (NBT) method described in Lipid Peroxide Experiments (edited by N. Kaneda, N. Ueda, Ishiyaku Press, p. 144). The measurement is based on measuring at 560 nm the amount of formazan produced by the reduction of NBT with a superoxide which results from the oxidation of xanthine with xanthine oxidase, and calculating the activation thereof. The modification involved irradiation with UVB ([…], 1.8 J/cm^2, 313 nm) for 5 minutes while simultaneously adding the xanthine oxidase, in order to interrupt the reaction.

Data set [4] can be described thus: Reactivity with ^1 O2 in riboflavin, rose bengal and methylene blue/h.nu.-systems with DABCO. In kind it is biochemical. The settings on record: DABCO as quencher. From the text: Therefore, the 3 systems listed below were used in identical experiments.
1. Riboflavin/h.nu.-system, 1,4-diazabicyclooctane (DABCO) as ^1 O2 quencher
2. Rose bengal/h.nu.-system DABCO as ^1 O2 quencher
3. Methylene blue/h.nu.-system DABCO as ^1 O2 eliminator

Another data set can be described thus: in vivo. The settings on record: rat, SD male and female rats, oral.

As a reminder, the LD50 is the dose expected to kill half of the subjects tested. A lower LD50 goes with a more toxic substance. In the case of `NCCS(=O)(O)=S` [thiotaurine, Aminoethyl thiosulfonate], in data set [1], the “change in the body weight curve” value is recorded as “no change in the body weight curve”. Moreover, the deaths result in data set [1] is recorded as “no deaths at all”. The “prevention of production of lipid peroxides” value in data set [2] (2.8×1/10^4 M, after 7.5 hours, 280 µM) is reported as “approximately 50%”; in data set [2] (4×1/10^3 M, 4000 µM), approximately 100%. In addition, the “Superoxide production inhibition rate” value is 34.4% in data set [3] (10^-2 M/reaction solution); 34.7% in data set [3] (10^-3 M/reaction solution); 43.2% in data set [3] (10^-4 M/reaction solution); 35.7% in data set [3] (10^-5 M/reaction solution); 47.0% in data set [3] (10^-6 M/reaction solution); 34.7% in data set [3] (10^-7 M/reaction solution). Moreover, the “reaction with ^1 O2” value in data set [4] was “reacts with ^1 O2 in all three systems”. Moreover, in “in vivo”, the LD50 was more than 2000 mg/kg.
